Measurements from patent publication US9447039B2, “Indole carboxamide derivatives and uses thereof” (priority 2012, dated 2016).
≈ marks a conversion by molar mass, not a printed value.

System: Mycobacterium tuberculosis H37Rv (ATCC #27294)
Assay: Minimum Inhibitory Concentration (MIC50) determination
Type: cell-based
Conditions: 120 h
Description: Mycobacterium tuberculosis H37Rv (ATCC #27294) (Mtb) strain was maintained in Middlebrook 7H9 broth medium supplemented with 0.05% Tween 80 and 10% ADS supplement. ADS supplement contains 5% bovine serum albumin fraction V. 2% D-dextrose and 0.8% of sodium chloride. Middlebrook 7H11 agar medium supplemented with 10% OADC (oleic acid, albumin, dextrose and catalase) was used as solid media for growing Mtb. Stock solutions of the compounds were prepared using 90% DMSO.
Minimum Inhibitory Concentration (MIC50) Determination
In Table 5 below, MIC50 is defined as the lowest concentration of the compound that inhibited 50% growth of the wild type strain compared to untreated controls. Test compounds were two or three fold serially diluted in duplicates and spotted by mosquito HTS to 384-well clear plates, resulting in 10 dilutions of each compound. A volume of 50 μl of Mtb culture (final OD600 of 0.02) was added to each well, and the assay plates were incubated at 37° C. for 5 days. Growth of bacteria was measured by reading absorbance at 600 nm using a Spectramax M2 spectrophotometer. MIC50 values were determined by using Activity Base software.

Row | Structure (SMILES) | MIC50
1 | C[C@H]1CC[C@@H](NC(=O)c2cc3c(Cl)cc(Cl)cc3[nH]2)CC1 [Example 4R, 4,6-Dichloro-N-(cis-4-methylcyclohexyl)-1H-indole-2-carboxamide] | 0.14 µM (≈ 0.0455 µg/mL)
2 | Cc1cc(C)c2cc(C(=O)N[C@@H]3CCC[C@@H](C)[C@@H]3C)[nH]c2c1 [Example 4C, N-((1R,2S,3R)-2,3-Dimethylcyclohexyl)-4,6-dimethyl-1H-indole-2-carboxamide] | 0.03 µM (≈ 0.00895 µg/mL)
3 | C[C@H]1CCCC[C@H]1NC(=O)c1cc2c(C#N)cccc2[nH]1 [Example 4AD, 4-Cyano-N-((1R,2S)-2-methylcyclohexyl)-1H-indole-2-carboxamide] | 0.76 µM (≈ 0.214 µg/mL)
4 | CC1CCC(NC(=O)c2cc3ccc(Cl)cc3[nH]2)CC1 (stereo not drawn) [Example 4V, 6-Chloro-N-(4-methylcyclohexyl)-1H-indole-2-carboxamide] | 0.2 µM (≈ 0.0582 µg/mL)
5 | C[C@H]1CCCC[C@H]1NC(=O)c1cc2ccc(Br)cc2[nH]1 [Example 4AC, 6-Bromo-N-((1R,2S)-2-methylcyclohexyl)-1H-indole-2-carboxamide] | 0.5 µM (≈ 0.168 µg/mL)
6 | C[C@H]1CC[C@H](NC(=O)c2cc3c(C#N)cc(C#N)cc3[nH]2)CC1 [Example 4AV, 4,6-Dicyano-N-(trans-4-methylcyclohexyl)-1H-indole-2-carboxamide] | 0.225 µM (≈ 0.0689 µg/mL)
7 | CC1CCC(NC(=O)c2cc3ccc(F)cc3[nH]2)CC1 (stereo not drawn) [Example 4BF, 6-Fluoro-N-(4-methylcyclohexyl)-1H-indole-2-carboxamide] | 1.62 µM (≈ 0.444 µg/mL)
8 | Cc1cc(C)c2cc(C(=O)NCCC(C)C)[nH]c2c1 [Example 3D, N-Isopentyl-4,6-dimethyl-1H-indole-2-carboxamide] | 3.26 µM (≈ 0.842 µg/mL)
9 | Cc1cc(C)c2cc(C(=O)N[C@H]3CC[C@H](C(C)C)CC3)[nH]c2c1 [Example 4D, N-(trans-4-Isopropylcyclohexyl)-4,6-dimethyl-1H-indole-2-carboxamide] | 0.03 µM (≈ 0.00937 µg/mL)
10 | C[C@H]1CCCC[C@H]1NC(=O)c1cc2c(Cl)cc(Cl)cc2[nH]1 [Example 4J, 4,6-Dichloro-N-((1R,2S)-2-methylcyclohexyl)-1H-indole-2-carboxamide] | 0.035 µM (≈ 0.0114 µg/mL)
11 | Cc1cc(N2CCCCC2)cc2[nH]c(C(=O)N[C@@H]3CCCC[C@@H]3C)cc12 [Example 6C, 4-Methyl-N-((1R,2S)-2-methylcyclohexyl)-6-(piperidin-1-yl)-1H-indole-2-carboxamide] | 5.12 µM (≈ 1.81 µg/mL)
12 | COc1ccc2[nH]c(C(=O)N[C@@H]3CCCC[C@@H]3C)cc2c1OC [Example 4AN, 4,5-Dimethoxy-N-((1R,2S)-2-methylcyclohexyl)-1H-indole-2-carboxamide] | 1.02 µM (≈ 0.323 µg/mL)
13 | CC1(C)CCC(NC(=O)c2cc3c(F)cc(F)cc3[nH]2)CC1 [Example 2A, N-(4,4-Dimethylcyclohexyl)-4,6-difluoro-1H-indole-2-carboxamide] | 0.023 µM (≈ 0.00705 µg/mL)
14 | CC1CCC(NC(=O)c2cc3c(F)cccc3[nH]2)CC1 (stereo not drawn) [Example 4BG, 4-Fluoro-N-(4-methylcyclohexyl)-1H-indole-2-carboxamide] | 2.13 µM (≈ 0.584 µg/mL)
15 | Cc1ccc(NC(=O)c2cc3c(C)cc(C)cc3[nH]2)cc1 [Example 3K, 4,6-Dimethyl-N-(p-tolyl)-1H-indole-2-carboxamide] | 5.64 µM (≈ 1.57 µg/mL)
16 | Cc1cc(C)c2cc(C(=O)NC3CCCCCC3)[nH]c2c1 [Example 3G, N-Cycloheptyl-4,6-dimethyl-1H-indole-2-carboxamide] | 0.098 µM (≈ 0.0279 µg/mL)
17 | C[C@H]1CCCC[C@H]1NC(=O)c1cc2ccc(F)cc2[nH]1 [Example 4AZ, 6-Fluoro-N-((1R,2S)-2-methylcyclohexyl)-1H-indole-2-carboxamide] | 1.35 µM (≈ 0.37 µg/mL)
18 | COc1ccc2[nH]c(C(=O)N[C@@H]3CCCC[C@@H]3C)cc2c1 [Example 4AR, 5-Methoxy-N-((1R,2S)-2-methylcyclohexyl)-1H-indole-2-carboxamide] | 7.53 µM (≈ 2.16 µg/mL)
19 | Cc1cc(C)c2cc(C(=O)NC3CCCCC3C#N)[nH]c2c1 (stereo not drawn) [Example 4Q, N-(2-Cyanocyclohexyl)-4,6-dimethyl-1H-indole-2-carboxamide] | 2.06 µM (≈ 0.608 µg/mL)
20 | Cc1cc(C)c2cc(C(=O)N[C@@H]3CCC[C@@H]3C)[nH]c2c1 [Example 4K, 4,6-Dimethyl-N-((1R,2S)-2-methylcyclopentyl)-1H-indole-2-carboxamide] | 0.69 µM (≈ 0.187 µg/mL)
21 | N#Cc1ccc2cc(C(=O)NC3CCCCC3)[nH]c2c1 [Example 4AF, 6-Cyano-N-cyclohexyl-1H-indole-2-carboxamide] | 2.27 µM (≈ 0.608 µg/mL)
22 | C#CC1CCCCC1NC(=O)c1cc2c(Cl)cc(Cl)cc2[nH]1 (stereo not drawn) [Example 4BE, 4,6-Dichloro-N-(2-ethynylcyclohexyl)-1H-indole-2-carboxamide] | 0.22 µM (≈ 0.0738 µg/mL)
23 | C[C@H]1CCCC[C@H]1NC(=O)c1cc2cc3c(cc2[nH]1)OCO3 [Example 4AP, N-((1R,2S)-2-Methylcyclohexyl)-5H-[1,3]dioxolo[4,5-f]indole-6-carboxamide] | 2.13 µM (≈ 0.64 µg/mL)

Row | Structure (SMILES) | MIC50
24 | Cc1cc(C)c2cc(C(=O)Nc3ccc(Cl)cc3)[nH]c2c1 [Example 3B, N-(4-Chlorophenyl)-4,6-dimethyl-1H-indole-2-carboxamide] | 2.95 µM (≈ 0.881 µg/mL)
25 | Cc1cc(C)c2cc(C(=O)NCC(C)C)[nH]c2c1 [Example 3J, N-Isobutyl-4,6-dimethyl-1H-indole-2-carboxamide] | 11.8 µM (≈ 2.9 µg/mL)
26 | Cc1cc(C#N)c2cc(C(=O)N[C@@H]3CCCC[C@@H]3C)[nH]c2c1 [Example 4AK, 4-Cyano-6-methyl-N-((1R,2S)-2-methylcyclohexyl)-1H-indole-2-carboxamide] | 0.02 µM (≈ 0.00591 µg/mL)
27 | O=C(NC1CCC(C(F)(F)F)CC1)c1cc2c(Cl)cc(Cl)cc2[nH]1 (stereo not drawn) [Example 5A, 4,6-Dichloro-N-(4-(trifluoromethyl)-cyclohexyl)-1H-indole-2-carboxamide] | 0.305 µM (≈ 0.116 µg/mL)
28 | Cc1cc(NC(C)C)cc2[nH]c(C(=O)N[C@@H]3CCCC[C@@H]3C)cc12 [Example 6E, 6-(Isopropylamino)-4-methyl-N-((1R,2S)-2-methylcyclohexyl)-1H-indole-2-carboxamide] | 2.92 µM (≈ 0.958 µg/mL)
29 | COc1ccc2cc(C(=O)N[C@@H]3CCCC[C@@H]3C)[nH]c2c1 [Example 4AM, 6-Methoxy-N-((1R,2S)-2-methylcyclohexyl)-1H-indole-2-carboxamide] | 6.19 µM (≈ 1.77 µg/mL)
30 | Cc1cc(OCCN2CCOCC2)cc2[nH]c(C(=O)NC3CCCCC3)cc12 [Example 9A, N-Cyclohexyl-4-methyl-6-(2-morpholinoethoxy)-1H-indole-2-carboxamide] | 4.94 µM (≈ 1.9 µg/mL)
31 | C[C@H]1CC[C@H](NC(=O)c2cc3c(Cl)cc(Cl)cc3[nH]2)CC1 [Example 4S, 4,6-Dichloro-N-(trans-4-methylcyclohexyl)-1H-indole-2-carboxamide] | 0.14 µM (≈ 0.0455 µg/mL)
32 | Cc1cc(C)c2cc(C(=O)NC3CCCCC3C(F)(F)F)[nH]c2c1 (stereo not drawn) [Example 4M, 4,6-Dimethyl-N-(2-(trifluoromethyl)cyclohexyl)-1H-indole-2-carboxamide] | 0.585 µM (≈ 0.198 µg/mL)
33 | Cc1cc(C)c2cc(C(=O)NC3CCCCC3C(C)C)[nH]c2c1 (stereo not drawn) [Example 4O, N-(2-Isopropylcyclohexyl)-4,6-dimethyl-1H-indole-2-carboxamide] | 0.765 µM (≈ 0.239 µg/mL)
34 | Cc1cc(C)c2cc(C(=O)NC(C)CCc3ccccc3)[nH]c2c1 (stereo not drawn) [Example 3E, 4,6-Dimethyl-N-(4-phenylbutan-2-yl)-1H-indole-2-carboxamide] | 5.74 µM (≈ 1.84 µg/mL)
35 | CC1CCC(NC(=O)c2cc3c(F)cc(F)cc3[nH]2)CC1 (stereo not drawn) [Example 4F, 4,6-Difluoro-N-(4-methylcyclohexyl)-1H-indole-2-carboxamide] | 0.37 µM (≈ 0.108 µg/mL)
36 | Cc1cc(C#N)cc2[nH]c(C(=O)N[C@@H]3CCCC[C@@H]3C)cc12 [Example 4AJ, 6-Cyano-4-methyl-N-((1R,2S)-2-methylcyclohexyl)-1H-indole-2-carboxamide] | 0.15 µM (≈ 0.0443 µg/mL)
37 | O=C(NC1CCC(C(F)(F)F)CC1)c1cc2c(F)cc(F)cc2[nH]1 (stereo not drawn) [Example 5B, 4,6-Difluoro-N-(4-(trifluoromethyl)-cyclohexyl)-1H-indole-2-carboxamide] | 1.19 µM (≈ 0.41 µg/mL)
38 | COC1CCCCC1NC(=O)c1cc2c(C)cc(C)cc2[nH]1 (stereo not drawn) [Example 4N, N-(2-Methoxycyclohexyl)-4,6-dimethyl-1H-indole-2-carboxamide] | 5.78 µM (≈ 1.74 µg/mL)
39 | Cc1cc(C)c2cc(C(=O)N[C@@H]3CCC[C@H](C)[C@@H]3C)[nH]c2c1 [Example 4B, N-((1R,2S,3S)-2,3-Dimethylcyclohexyl)-4,6-dimethyl-1H-indole-2-carboxamide] | 0.01 µM (≈ 0.00298 µg/mL)
40 | CC1CCC(NC(=O)c2cc3c(Cl)ccc(Cl)c3[nH]2)CC1 (stereo not drawn) [Example 4U, 4,7-Dichloro-N-(4-methylcyclohexyl)-1H-indole-2-carboxamide] | 8.42 µM (≈ 2.74 µg/mL)
41 | Cc1cc(C)c2cc(C(=O)N[C@H]3CCC[C@@H](C)[C@H]3C)[nH]c2c1 [Example 4I, N-((1S,2R,3R)-2,3-Dimethylcyclohexyl)-4,6-dimethyl-1H-indole-2-carboxamide] | 0.02 µM (≈ 0.00597 µg/mL)
42 | O=C(NC1CCC(CF)CC1)c1cc2c(Cl)cc(Cl)cc2[nH]1 (stereo not drawn) [Example 7A, 4,6-Dichloro-N-(4-(fluoromethyl)cyclohexyl)-1H-indole-2-carboxamide] | 0.14 µM (≈ 0.0481 µg/mL)
43 | CCC(C)CNC(=O)c1cc2c(C)cc(C)cc2[nH]1 (stereo not drawn) [Example 3I, 4,6-Dimethyl-N-(2-methylbutyl)-1H-indole-2-carboxamide] | 2.48 µM (≈ 0.641 µg/mL)
44 | Cc1cc(C)c2cc(C(=O)Nc3ccc(C(C)C)cc3)[nH]c2c1 [Example 3A, N-(4-Isopropylphenyl)-4,6-dimethyl-1H-indole-2-carboxamide] | 8.67 µM (≈ 2.66 µg/mL)
45 | O=C(NC1CCC(F)(F)CC1)c1cc2c(Cl)cc(Cl)cc2[nH]1 [Example 4P, 4,6-Dichloro-N-(4,4-difluorocyclohexyl)-1H-indole-2-carboxamide] | 0.565 µM (≈ 0.196 µg/mL)
